“Also recorded” adds a separate entry of the source.
Tests used:
α-glucosidase = α-glucosidase (Saccharomyces cerevisiae, UniProt P53341); type: biochemical
Procedure: The bioassay was carried out on 96 well-plates (200 μL per well). A solution of the test samples in 10% dimethyl sulfoxide (DMSO) was diluted further to concentrations of 1024, 256, 64, 16, 4, and 1 μg mL^−1. Each concentration of the test samples (10 μL) was incubated at 37 °C with phosphate buffer 100 mM (pH 6.8, 40 μL), α-glucosidase 0.4 U mL^−1 (25 μL), and p-nitrophenyl α-D-glucopyranoside 2.5 mM (25 μL). The reaction was stopped after 30 min by adding 100 μL of 0.1 M Na2CO3. The enzyme activities were measured based on the absorbance at λmax 405 nm of the test samples. […] Percentage inhibition was calculated as follows:[38]α-Glucosidase inhibition (%) = [Abs(control) − Abs(sample)]/Abs(control) × 100%

α-glucosidase, sequence (P53341 whole entry): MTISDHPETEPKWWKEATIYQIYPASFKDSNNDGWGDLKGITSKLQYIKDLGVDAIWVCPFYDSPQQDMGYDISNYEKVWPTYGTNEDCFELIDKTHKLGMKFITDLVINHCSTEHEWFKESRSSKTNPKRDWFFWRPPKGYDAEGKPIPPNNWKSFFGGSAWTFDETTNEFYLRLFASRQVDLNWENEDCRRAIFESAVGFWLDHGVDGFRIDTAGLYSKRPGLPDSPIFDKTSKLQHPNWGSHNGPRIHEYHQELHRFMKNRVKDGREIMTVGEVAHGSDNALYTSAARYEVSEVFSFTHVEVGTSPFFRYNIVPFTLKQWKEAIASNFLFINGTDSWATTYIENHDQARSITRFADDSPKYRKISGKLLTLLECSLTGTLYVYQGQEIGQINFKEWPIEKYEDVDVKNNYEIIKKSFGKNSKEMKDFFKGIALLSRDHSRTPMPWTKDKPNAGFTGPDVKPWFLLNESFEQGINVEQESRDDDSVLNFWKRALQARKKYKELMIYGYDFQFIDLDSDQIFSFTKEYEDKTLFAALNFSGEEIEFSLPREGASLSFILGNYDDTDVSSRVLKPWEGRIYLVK

| melting point | Structure (SMILES) | α-glucosidase inhibition, result in words (α-glucosidase) |
| --- | --- | --- |
|  | CC(C)=CCC[C@](C)(O)[C@H]1CC[C@]2(C)[C@@H]1CC[C@@H]1[C@@]3(C)CCC(=O)C(C)(C)[C@@H]3CC[C@]12C [Compound 1, dipterocarpol] | weak activity |
|  | CC(C)=CCCC(C)(O)C1CCC2(C)C1CCC1C3(C)CCC(=NOC(=O)c4cnc(C)cn4)C(C)(C)C3CCC12C [Compound 3a, 20(S)-hydroxy dammar-24-ene-3-oximyl-[5-methyl-3,6-diazine-1-carboxylate]] | no inhibition activity; also recorded: unnoticeable inhibition |
|  | CC(C)=CCCC(C)(O)C1CCC2(C)C1CCC1C3(C)CCC(=NOC(=O)c4cc(I)cc(I)c4O)C(C)(C)C3CCC12C [Compound 3d, 20(S)-hydroxydammar-24-ene-3-oximyl-[2-hydroxy-3,5-diiodobenzoate]] | loss of their activity; also recorded: no inhibition activity |
|  | CC(C)=CCCC(C)(O)C1CCC2(C)C1CCC1C3(C)CCC(=NOC(=O)c4ccc(F)cc4)C(C)(C)C3CCC12C [Compound 3g, 20(S)-hydroxydammar-24-ene-3-oximyl-[4-fluorobenzoate]] | no α-glucosidase inhibition; also recorded: no inhibition activity; also recorded: unnoticeable inhibition |
|  | CC(C)=CCCC(C)(O)C1CCC2(C)C1CCC1C3(C)CCC(=NOC(=O)c4ccccc4I)C(C)(C)C3CCC12C [Compound 3h, 20(S)-hydroxydammar-24-ene-3-oximyl-[2-iodobenzoate]] | loss of their activity; also recorded: no inhibition activity; also recorded: unnoticeable inhibition |
|  | CC(C)=CCCC(C)(O)C1CCC2(C)C1CCC1C3(C)CCC(=NOC(=O)C(C)C)C(C)(C)C3CCC12C [Compound 3m, 20(S)-hydroxydammar-24-ene-3-oximyl isobutyrate] | no inhibition activity; also recorded: unnoticeable inhibition |
| 195 to 196 °C | CC1(C)C2CC[C@]3(C)C(CCC4[C@@H]([C@@]5(C)CCC(=O)O5)CC[C@]43C)[C@@]2(C)CC[C@@H]1O (stereo partly drawn) [Compound 5, 3β-hydroxy-17-[(5α-methyl)-3,4H-furane-2-one]-25,26,27-tris-nor-dammarane] |  |
| 248 to 249 °C | CC(=O)O[C@H]1CC[C@@]2(C)C(CC[C@]3(C)C2CCC2[C@@H]([C@@]4(C)CCC(=O)O4)CC[C@]23C)C1(C)C (stereo partly drawn) [Compound 6a, 17-[(5α-methyl)-3,4H-furane-2-one]-3β-(O-acetyl)-25,26,27-tris-nor-dammarane] |  |
| 134 to 135 °C | CCCCC(=O)O[C@H]1CC[C@@]2(C)C(CC[C@]3(C)C2CCC2[C@@H]([C@@]4(C)CCC(=O)O4)CC[C@]23C)C1(C)C (stereo partly drawn) [Compound 6b, 17-[(5α-methyl)-3,4H-furane-2-one]-3β-(O-pentanoyl)-25,26,27-tris-nor-dammarane] |  |
| 206 to 207 °C | CC(C)C(=O)O[C@H]1CC[C@@]2(C)C(CC[C@]3(C)C2CCC2[C@@H]([C@@]4(C)CCC(=O)O4)CC[C@]23C)C1(C)C (stereo partly drawn) [Compound 6c, 17-[(5α-methyl)-3,4H-furane-2-one]-3β-(O-isobutyryl)-25,26,27-tris-nor-dammarane] |  |
| 186 to 187 °C | CC1(C)C2CC[C@]3(C)C(CCC4[C@@H]([C@@]5(C)CCC(=O)O5)CC[C@]43C)[C@@]2(C)CC[C@@H]1OC(=O)c1ccccc1O (stereo partly drawn) [Compound 6d, 17-[(5α-methyl)-3,4H-furane-2-one]-3β-(O-salycyloyl)-25,26,27-tris-nor-dammarane] |  |
| 236 to 238 °C | CC1(C)C2CC[C@]3(C)C(CCC4[C@@H]([C@@]5(C)CCC(=O)O5)CC[C@]43C)[C@@]2(C)CC[C@@H]1OC(=O)/C=C/c1ccccc1 (stereo partly drawn) [Compound 6e, 17-[(5α-methyl)-3,4H-furane-2-one]-3β-(O-cinnamoyl)-25,26,27-tris-nor-dammarane] |  |

| Structure (SMILES) | melting point | α-glucosidase inhibition, result in words (α-glucosidase) |
| --- | --- | --- |
| CC1(C)C(=O)CC[C@@]2(C)C1CC[C@]1(C)C2CCC2[C@@H]([C@@]3(C)CCC(=O)O3)CC[C@]21C (stereo partly drawn) [Compound 4, 17-[(5α-methyl)-3,4H-furane-2-one]-25,26,27-tris-nor-dammar-3-one] | 118.4 to 120.3 °C | no inhibition activity; also recorded: unnoticeable inhibition |

— publication PMC9043233, “Newly synthesised oxime and lactone derivatives from Dipterocarpus alatus dipterocarpol as anti-diabetic inhibitors: experimental bioassay-based evidence and theoretical computation-based prediction” (RSC Advances, 2021)
